Laboratory results from paper PMC11548001, “Beware of N-Benzoyloxybenzamides” (Molecules, 2024).
Blank lines part the entries; values can stand above or below the compound they belong to.

Experiments:
[1] = target: T1, acid ceramidase (Homo sapiens, UniProt Q13510); assay: HTS acid ceramidase assay (modified reported assay, without Saposin D); assay type: biochemical
T1 construct: if using cell lysate, each well contained 7.45 µL assay buffer; endogenous in cells; host or cells: HEK293 cell lysate (supernatant after freeze-thaw and homogenisation)
T1 sequence (Q13510 22-395): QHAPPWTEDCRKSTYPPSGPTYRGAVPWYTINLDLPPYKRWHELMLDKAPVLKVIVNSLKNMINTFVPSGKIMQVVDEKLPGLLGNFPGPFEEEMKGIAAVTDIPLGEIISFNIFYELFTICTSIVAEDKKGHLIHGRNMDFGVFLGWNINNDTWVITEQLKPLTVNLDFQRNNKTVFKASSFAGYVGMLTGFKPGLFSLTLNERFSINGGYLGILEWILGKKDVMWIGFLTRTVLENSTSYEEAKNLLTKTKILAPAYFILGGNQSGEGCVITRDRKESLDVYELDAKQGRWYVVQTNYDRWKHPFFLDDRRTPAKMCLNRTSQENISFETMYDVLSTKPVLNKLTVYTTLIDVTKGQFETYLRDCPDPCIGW
Excerpt: Despite continuing advances in structure-driven research, High-Throughput Screening (HTS) is still a valuable resource to find novel chemical starting points in drug discovery. Recently, the Medicines Discovery Institute initiated an HTS looking for small-molecule inhibitors of acid ceramidase, a lysosomal enzyme. […] This substantial increase in potency can be explained by the fact that to function properly, acid ceramidase requires a co-factor present in cells which was not present in the original HTS assay, Saposin D [4].

[2] = target: T1, acid ceramidase; assay: in-house cell lysate acid ceramidase inhibition assay (HEK293 cell lysate, RBM14-C12 substrate); assay type: biochemical
Method: (§1) Cultured HEK293 cells were grown until 80-90% confluency, collected, and washed twice in PBS. Collected cell pellets were resuspended in 0.2 M sucrose solution and freeze-thawed three times before being homogenised using a syringe and 25 G needle. Lysed cells were centrifuged at 17,000 g for 30 min at 4°C. The supernatant was collected, and protein quantified using Bradford reagent.
(§2) Acid ceramidase activity assay
(§3) To measure acid ceramidase activity, an assay previously described by Bedia et al., (2010) was miniaturised to a 384-well format. The enzymatic assay was carried out in black flat bottom 384-well plates. Briefly, if using cell lysate, each well contained 7.45 µL assay buffer (25 mM sodium acetate pH 4.5) and 0.05 µL 4 mM RBM14-C12 (Avanti, USA) in ethanol (20 µM final substrate concentration), 2 µg protein in 2.4 µL 0.2 M sucrose, and 0.1 µL compound (control wells contained 0.1 µL DMSO). If using purified acid ceramidase protein (Peak Proteins), the experimental set up was similar, but 100 nM protein was used, and the assay buffer contained 25 mM sodium acetate pH 4.5, 0.1% Pluronic F-127, 0.5 mM EGTA, 0.05% BSA, 1 mM TCEP. Blank wells contained the same reaction mixes but without the protein samples. The reaction started upon addition of the protein sample. The plate was incubated at 37°C for 3 h. The reaction was stopped upon addition of 10 µL fresh detection mix (2.5 mg/mL NaIO4 in 100 mM glycine/NaOH buffer pH 10.6) and the plate incubated for […]

[3] = Stability in DMSO / d6-DMSO at room temperature (LCMS, 1H and 19F NMR); assay type: physicochemical; details: for stability of DMSO stock solution (in words): LCMS
Method: Key to this was running LCMS analysis on a d6-DMSO NMR sample that was left at room temperature for 6 weeks. Despite also degrading into the carboxylic acid 12, the mass of the other species was different by +6 Daltons compared to the non-deuterated sample. […] To monitor the speed of degradation, a fresh sample was analysed periodically by ^1H and ^19F NMR spectroscopy (Figure 4).

[4] = target: T1, acid ceramidase; assay: Preincubation acid ceramidase activity assay; assay type: biochemical; details: pre-incubated at 0, 1 and 3 h at IC50 concentration, 37°C
Excerpt: A partially degraded sample was purified by reverse-phase chromatography to isolate the DMSO-addition species. Although only a small amount of material was isolated, ^1H NMR spectroscopic analysis was consistent with the proposed structure (Scheme 3). The ^1H NMR data, in particular, were in line with that reported for a related compound (3f, see Supplementary Material). Such reactivity has been reported between N-pivaloyloxybenzamides and sulfoxides in the presence of an iron catalyst. The decomposition reaction to form a sulfoximine reported in this paper should be of interest to the synthetic community as it proceeds cleanly at ambient temperature without the need for reagents nor a catalyst; however, further optimisation of the reaction is beyond the scope of this paper.
as §1, with “Lysed cells were centrifuged at 17,000 g for 30 min at 4°C.” left out, “reagent. […]” for “reagent.”
To measure acid ceramidase activity, an assay previously described by Bedia et al., (2010) was miniaturised to a 384-well format. […] Fluorescence was measured using a microplate reader (PHERAstar FSX; BMG Labtech) at excitation and emission wavelengths of 350 nm and 450 nm […]

[5] = Reactivity with the amino acid cysteine (LCMS); assay type: physicochemical; details: LCMS analysis
Excerpt: Almost all reported small-molecule inhibitors of acid ceramidase are covalent in their mechanism of action by reaction with cysteine 143 [14, 15, 16, 17, 18, 19, 20, 21, 22]. In some cases, the covalent warhead itself is linked to promiscuity and intrinsic chemical instability. To probe whether 1 was chemically reactive in this way, a sample was stirred with the amino acid cysteine.

[6] = target: T1, acid ceramidase; assay: purified protein acid ceramidase inhibition assay; assay type: biochemical; details: freshly synthesised sample
Method: as §2, §3

[7] = cell lysate assay, supplied (HTS library) samples, read-out: IC50

SMILES: CC(C)(C)c1ccc(C(=O)NOC(=O)c2ccc(Cl)c(Cl)c2)cc1 [compound 2]
inhibition (in words) ([1]; Figure 1): moderate inhibition
IC50 [2, 7]: 237 nM

SMILES: O=C=Nc1ccc(OC(F)F)cc1 [compound 7]
stability of DMSO stock solution (in words) [3]: fully hydrolysed to 8
IC50 [2]: ~100000 nM

SMILES: O=C(O)c1ccc(N2CCCCCC2)c([N+](=O)[O-])c1 [compound 12]
activity (in words) ([2]; cell lysate assay): inactive

Further lines, with some results ahead:

activity (in words) ([2]; cell lysate assay): no activity
SMILES: CS(C)(=O)=NC(=O)c1ccc(OC(F)F)cc1 [compound 13]

IC50 ([1]; library sample): 340 nM
stability of DMSO stock solution (in words) [3]: slowly degraded into two species
estimated half-life ([3]; d6-DMSO, room temperature, 1H and 19F NMR integrations against time): just over two days
IC50 ([2]; cell lysate assay with addition of EDTA, read-out: IC50): 7 nM
IC50 ([2]; cell lysate assay with addition of N,N,N′,N′-tetrakis(2-pyridinylmethyl)-1,2-ethanediamine (Zn2+ chelator), read-out: IC50): 8 nM
IC50 ([2]; cell lysate assay, freshly synthesised sample, read-out: IC50): 3.2 nM
IC50 [2, 7]: 11 nM
IC50 [6]: 163 nM
SMILES: O=C(NOC(=O)c1ccc(N2CCCCCC2)c([N+](=O)[O-])c1)c1ccc(OC(F)F)cc1 [compound 1]
inhibition after pre-incubation (in words) [4]: time-dependent inhibition pattern expected of a covalent inhibitor
stability when stirred with cysteine (in words) [5]: slowly decomposed into two main chemical species

IC50 ([2]; cell lysate assay, read-out: IC50): ~100000 nM
SMILES: O=C(Nc1ccc(OC(F)F)cc1)Nc1ccc(OC(F)F)cc1 [compound 8]
